For data set [1] the following is noted: in vivo; cited from earlier work.
Another data set concerns the target T1, M4 receptor (Homo sapiens, UniProt P08173).
T1 construct: expressed in transfected cells
T1 sequence (P08173 1-479): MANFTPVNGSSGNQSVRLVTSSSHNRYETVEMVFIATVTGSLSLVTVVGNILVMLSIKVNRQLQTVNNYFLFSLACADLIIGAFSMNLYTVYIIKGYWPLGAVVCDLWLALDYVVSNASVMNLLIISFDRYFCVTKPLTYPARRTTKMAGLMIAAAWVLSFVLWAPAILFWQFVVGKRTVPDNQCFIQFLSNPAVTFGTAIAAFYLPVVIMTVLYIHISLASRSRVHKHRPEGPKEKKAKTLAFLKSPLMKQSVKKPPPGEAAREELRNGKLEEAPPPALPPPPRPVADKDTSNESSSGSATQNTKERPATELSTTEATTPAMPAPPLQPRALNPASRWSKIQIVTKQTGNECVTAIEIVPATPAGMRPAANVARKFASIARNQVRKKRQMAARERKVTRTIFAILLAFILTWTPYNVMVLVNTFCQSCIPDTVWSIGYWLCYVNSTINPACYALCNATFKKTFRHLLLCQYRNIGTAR
Kind of data set: Calcium flux (FLIPR) potentiation assay in cells stably expressing M4 receptor. The format is cell-based. In outline: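 CHO-K1 cells co-expressing Gα15, loaded with Calcium 6 dye 1 h at room temperature, preincubated 2 min with compound ([…]), then challenged with acetylcholine at EC20. Peak fluorescence expressed as % activation between DMSO and ACh EC100 controls.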

Data set [2] can be described thus: Pharmacokinetic determination in Balb/c mice. To be noted: mouse, in vivo, po, male Balb/c mice, p.o. 5 mg/kg; for MRT inf: read-out: MRT 0-∞. The method, then: To investigate the pharmacokinetic behaviours of the example compounds in both plasma and brain of Balb/c mice (test animals) following oral administration at a dose of 5 mg/kg.
(§1) 2.1 Test drugs: The example compounds of the present invention, made in house.
2.2 Test animals: Balb/c Mouse, male.
24 Balb/c mice, male; p.o. respectively at a dose of 5 mg/kg and an administration volume of 10 mL/kg after the mice were fasted overnight.
(§2) Formulation of a drug for oral administration: 0.5% CMC-Na (1% Tween 80).
(§3) 0.50 g of sodium carboxymethyl cellulose (CMC-Na, viscosity: 800-1200 Cps) was weighed and dissolved in 99 mL of purified water, and 1 ml of Tween 80 was added. The components were mixed thoroughly under stirring to form a clear solution.
The example compound was weighed into a 4-mL glass vial, 2.4 mL of the solution was added, and the mixture was subjected to ultrasound treatment for 10 minutes to obtain a homogeneous suspension with a concentration of 0.5 mg/mL.
(§4) After the test animals were euthanised by CO2, blood samples were collected from the heart and brain tissues were harvested at 0.25 h, 0.5 h, 1 h, 2 h, 4 h, 6 h, 8 h, and 24 h post-dose. Blood was placed in EDTA-2K tubes, and centrifuged at 6000 rpm for 6 min at 4°C to separate the plasma. Brain tissues were rinsed with pre-cold PBS, blotted dry, and weighed. Both plasma and brain samples were stored at -80°C. The animals were fed 4 h after administration.
• 1) 40 uL of plasma sample was precipitated with 160 uL of acetonitrile, mixed, and centrifuged at 3500 × g for 5-20 min. Brain tissues were diluted, homogenised and centrifuged. • 2) 100 uL of the treated supernatant solution was taken for LC/MS/MS analysis to determine the concentration of the test compounds.
(§5) • Liquid phase conditions: Shimadzu LC-20AD pump • Mass spectrometry conditions: AB Sciex API 4000 mass spectrometer • Chromatographic column: Phenomenex Gemiu 5 um C18 50 × 4.6 mm • Mobile phase: solution A: 0.1% formic acid in water, solution B: acetonitrile • Flow rate: 0.8 mL/min • Elution time: 0-4.0 min, with eluents as follows:
(§6) The main pharmacokinetic parameters were calculated using WinNonlin 8.1.

A short description of data set [3]: Pharmacokinetic determination in SD rats. The settings on record: rat, in vivo, po, male SD rats, p.o. 5 mg/kg; for MRT inf: read-out: MRT 0-∞. Here is the method:
To investigate the pharmacokinetic behaviours of the example compounds in both plasma and brain of SD rats (test animals) following oral administration at a dose of 5 mg/kg.
as §1
2.2 Test animals: SD Rat, male.
24 SD Rats, male; p.o. respectively at a dose of 5 mg/kg and an administration volume of 10 mL/kg after the rats were fasted overnight.
as §2, §3
The example compound was weighed into a 100 mL glass vial, 80 mL of the solution was added, and the mixture was subjected to ultrasound treatment for 10 minutes to obtain a homogeneous suspension with a concentration of 0.5 mg/mL.
as §4
• 3) 40 uL of plasma sample was precipitated with 160 uL of acetonitrile, mixed, and centrifuged at 3500 × g for 5-20 min. Brain tissues were diluted, homogenised and centrifuged. • 4) 100 uL of the treated supernatant solution was taken for LC/MS/MS analysis to determine the concentration of the test compounds.
as §5, §6

The conditions of data set [4]: six weeks of dosing, cited from earlier work.
Setting [5] is: CHO-K1/M4/Gα15 cells, potentiation of acetylcholine (EC20) calcium flux, read-out: M4 FLIPR EC50.

Molecules are shown by their SMILES. Read-outs that look alike come from different tables or passages of the source.

Consider `Cc1nnc2sc(C(=O)NCc3ccc(S(=O)(=O)C(F)(F)F)cc3)c(N)c2c1C` [VU0467154], for which the “learning deficits induced by the NMDA receptor antagonist MK-801” value in data set [1] is listed as “improved learning deficits”.
One may read the EC50 as the midpoint of the concentration-response curve. As usually defined, the AUC(0-inf) is total exposure, with the tail of the curve extrapolated. One may read the Cmax as the highest concentration seen after dosing. The term Tmax denotes the time at which the peak concentration occurs. On to `Cc1c2c(c3ncnn3c1C)CN(C(=O)CC1CN(c3ncc(C(F)(F)F)cn3)C1)C2` [Example 144, 1-(5,6-Dimethyl-7,9-dihydro-8H-pyrrolo[3,4-c][1,2,4]triazolo[1,5-a]pyridin-8-yl)-2-(1-(5-(trifluoromethyl)pyrimidin-2-yl)azetidin-3-yl)ethan-1-one], for which, at M4 receptor (setting [5]), the EC50 worked out at 85.8 nM. Further, in data set [2], the total exposure AUC(0-inf) came to 4790 ng·h/mL, the Cmax turned out to be 1890 ng/mL, the Tmax turned out to be 0.5 h and the MRT inf was 1.4 h. Besides, in data set [3], the AUC(0-inf) amounted to 11000 ng·h/mL, the concentration peaked (Cmax) at 1710 ng/mL, the Tmax is 2 h and the MRT inf stood at 4.6 h.
In the case of `Cc1c2c(c3ncnn3c1C)CN(C(=O)OC1CN(c3ccnc(C(F)F)c3)C1)C2` [Example 122], in data set [2], the total exposure AUC(0-inf) came out at 6130 ng·h/mL, the peak concentration (Cmax) was 1550 ng/mL, the Tmax came out at 0.5 h and the MRT inf was 2.6 h. Moreover, in data set [3], the AUC(0-inf) was found to be 34800 ng·h/mL, the Cmax was 3110 ng/mL, the time to peak (Tmax) is 2 h and the MRT inf was 5.8 h.
With `Cc1c2c(c3ncnn3c1C)CN(C(=O)OC1CN(c3ccnc(C(F)(F)F)c3)C1)C2` [Example 32, 1-(2-(Trifluoromethyl)pyridin-4-yl)azetidin-3-yl 5,6-dimethyl-7,9-dihydro-8H-pyrrolo[3,4-c][1,2,4]triazolo[1,5-a]pyridine-8-carboxylate], the 50% effective concentration (EC50) at M4 receptor (setting [5]) worked out at 72.4 nM. In data set [2], the AUC(0-inf) turned out to be 7370 ng·h/mL, the Cmax is 2560 ng/mL, the time to peak (Tmax) stood at 0.5 h and the MRT inf worked out at 2.5 h. Besides, in data set [3], the total exposure AUC(0-inf) stood at 17500 ng·h/mL, the peak concentration (Cmax) worked out at 4520 ng/mL, the Tmax is 2 h and the MRT inf came out at 2.7 h.
Consider `Cc1c2c(c3ncnn3c1C)CN(C(=O)OC1CN(c3ccnc(OC(F)F)c3)C1)C2` [Example 123], for which, in data set [2], the AUC(0-inf) amounted to 4160 ng·h/mL, the highest level (Cmax) was 1040 ng/mL, the Tmax stood at 0.5 h and the MRT inf turned out to be 3.8 h. In data set [3], the area under the curve AUC(0-inf) came out at 12200 ng·h/mL, the maximum concentration (Cmax) came out at 2530 ng/mL, the time of peak concentration (Tmax) was 2 h and the MRT inf was determined as 3.5 h.
Consider `Cc1c2c(c3ncnn3c1C)CN(C(=O)CC1CN(c3ccnc(OC(F)F)c3)C1)C2` [Example 52], for which the concentration for a half-maximal effect (EC50) on M4 receptor (setting [5]) was found to be 13.9 nM. In data set [2], the AUC(0-inf) was found to be 2540 ng·h/mL, the Cmax was found to be 1950 ng/mL, the Tmax was 0.25 h and the MRT inf is 1.2 h. Further, in data set [3], the total exposure AUC(0-inf) is 10800 ng·h/mL, the Cmax came out at 2450 ng/mL, the time of peak concentration (Tmax) was found to be 2 h and the MRT inf was 2.6 h.
For the compound `Cc1c2c(c3ncnn3c1C)CN(C(=O)CC1CN(c3cnc4c(c3)COC4)C1)C2` [Example 270], the 50% effective concentration (EC50) on M4 receptor (setting [5]) was 23.2 nM. Further, in data set [3], the AUC(0-inf) amounted to 12000 ng·h/mL, the Cmax was 3500 ng/mL, the time of peak concentration (Tmax) came to 0.83 h and the MRT inf was determined as 2.5 h.
Consider `Cc1cn2nc(N3CC(OC(=O)N4Cc5c(C)c(C)n6ncnc6c5C4)C3)ccc2n1` [Example 105], for which the EC50 at M4 receptor came to 19.9 nM. For the same compound, in data set [2], the AUC(0-inf) came to 10200 ng·h/mL, the concentration peaked (Cmax) at 1570 ng/mL, the time of peak concentration (Tmax) was determined as 0.5 h and the MRT inf was 4.3 h. Moreover, in data set [3], the AUC(0-inf) was determined as 16300 ng·h/mL, the Cmax was 2680 ng/mL, the Tmax stood at 1 h and the MRT inf is 4.3 h.
With `CCn1ncc2cc(N3CC(CC(=O)N4Cc5c(C)c(C)n6ncnc6c5C4)C3)ccc21` [Example 307], on M4 receptor, the EC50 was determined as 17.1 nM. In addition, in data set [3], the AUC(0-inf) came out at 5300 ng·h/mL, the maximum concentration (Cmax) turned out to be 2110 ng/mL, the time of peak concentration (Tmax) worked out at 0.75 h and the MRT inf stood at 2.02 h.
Take `Cc1cc(C)c2c(n1)CN(C(=O)CC1CN(c3ccnc(C(F)(F)F)c3)C1)C2` [CVL-231]: the results for the “mean reduction in the Positive and Negative Syndrome Scale (PANSS) total score from baseline” value in data set [4] (20 mg twice daily) and in data set [4] (30 mg once daily) were 17.9 points and 19.5 points, respectively.
With `COc1cc(N2CC(CC(=O)N3Cc4c(C)c(C)n5ncnc5c4C3)C2)c(Cl)cn1` [Example 147], the EC50 at M4 receptor (setting [5]) was determined as 40.9 nM. In addition, in data set [3], the AUC(0-inf) turned out to be 3260 ng·h/mL, the peak level (Cmax) was 914 ng/mL, the Tmax came out at 1 h and the MRT inf worked out at 2.4 h.
The corresponding values for `COc1cc(N2CC(OC(=O)N3Cc4c(C)c(C)n5ncnc5c4C3)C2)ccn1` [Example 182] are 37 nM, 7050 ng·h/mL, 1710 ng/mL, 1 h and 2.8 h.

Values taken from patent EP4810493A1, “HETEROCYCLIC CARBONYL DERIVATIVE MODULATOR, PREPARATION METHOD THEREFOR, AND USE THEREOF” (Shanghai Hansoh Biomedical Co., Ltd., priority 2023, dated 2025).
